The target in this assay is RNA-directed RNA polymerase (Hepacivirus hominis, UniProt Q8JXU8). The assay can be described thus: Inhibitory activity against HCV delta 21 NS5b RNA polymerase.
RNA-directed RNA polymerase, sequence (Q8JXU8 whole entry): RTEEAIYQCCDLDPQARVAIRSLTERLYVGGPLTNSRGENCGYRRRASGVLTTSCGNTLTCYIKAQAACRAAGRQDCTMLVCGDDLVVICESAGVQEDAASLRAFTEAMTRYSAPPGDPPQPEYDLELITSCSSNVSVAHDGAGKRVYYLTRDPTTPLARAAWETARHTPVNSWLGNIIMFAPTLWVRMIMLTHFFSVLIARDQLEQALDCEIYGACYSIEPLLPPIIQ

As a reminder, the IC50 is the point on the concentration scale where inhibition reaches its midpoint. The low end stands for inhibition by little substance, the high end for a need for much substance. In turn, `O=S(=O)(Nn1c(O)c(Cc2ccc(Cl)c(Cl)c2)sc1=S)c1ccccc1` [5-(3,4-dichlorobenzyl)-3-(benzenesulfonylamino)-4-oxo-2-thionothiazolidine] registered an IC50 of 11 µM. This lies in the double-digit micromolar range.
The same measure for `C=C(c1ccc(Cl)c(Cl)c1)c1sc(=S)n(NS(=O)(=O)c2ccccc2)c1O` [5-(3,4-dichlorophenyl-1-ethylene)-3-(benzenesulfonylamino)-4-oxo-2-thionothiazolidine]: 0.6 µM; for `O=C1N=C(S)SC1=Cc1ccc(Cl)cc1` [5-(4-chlorobenzylidene)-2-thioxothiazolidin-4-one]: more than 30 µM; for `O=C(NN1C(=O)C(=Cc2ccc(Cl)cc2)SC1=S)c1ccccc1` [5-(4-chlorobenzylidene)-3-(benzoylamino)-4-oxo-2-thionothiazolidine]: more than 30 µM.
`O=C1C(=Cc2ccc(-c3cc(C(F)(F)F)ccc3Cl)o2)SC(=S)N1NS(=O)(=O)c1ccccc1` [5-(5-[2-chloro-5-(trifluoromethyl)phenyl]-furan-2-methylene)-3-(benzenesulfonylamino)-4-oxo-2-thionothiazolidine]: the half-maximal inhibitory concentration (IC50) stood at 0.1 µM.

Values taken from BindingDB's records for doi:10.1021/jm050859x (Amgen, 2006).
